Tested on: allogeneic skin graft rejection, CBA mice
Assay: Allogeneic skin graft rejection (BALB/c to CBA)
Type: in vivo, mouse
Parameters: key to Graft Scores: 0: rejection; +: no rejection
Conditions: 0.01 mg/kg
Procedure: Allogeneic skin grafting. The effects of mycalamide A on the rejection of allogeneic skin grafts were determined using the BALB/c→CBA skin graft model. Skin grafts were prepared from BALB/c donors as follows: donors were sacrificed by cervical dislocation and hair shaved from back, sides, and torso. A depilatory agent was used to remove any remaining hair. The prepared skin area was then swabbed with a Betadine and alcohol solution. The skin was removed by making an incision at the base of the tail, and the skin was lifted and separated from the underlying muscle in two sections. The skin was then placed in a sterile petri dish containing sterile, ice cold normal saline. A sterile, #7 cord borer was used to punch out approximately 16 graft discs from each animal skin preparation. Recipient CBA mice were anesthetized with 1.5 cc ketamine:xylamine. The back of each recipient animal was shaved and a depilatory agent used to remove excess hair. The prepared area was swabbed with Betadine:alcohol, and a small plug of skin, approximately the size of the prepared grafts, was removed by excision. The skin graft plug was then placed in the center of the excised region and the resulting transplanted area sprayed with a barrier film (liquid skin). Animals were placed one to a cage and supplied with sterile food and water, ad libitum. Mice were observed each day for signs of rejection of the graft (a shrinking and thickening of the graft with eventual sloughing).

For `C=C1CC(OC)(C(O)C(=O)NC2OCOC3C2OC(CC(O)CO)C(C)(C)C3OC)OC(C)C1C` (stereo not shown) [Mycalamide A, mycalamide A], the “% Alive” value (Q2D × 7, 1-14 IP, D35) was 0%, the “Graft Scores” value (Q2D × 7, 1-14 IP, D35) was “+” and the mean rejection time (twice daily, intraperitoneally for 14 days) was 17.8 days. The “effect on rejection of allogeneic skin grafts” value (twice daily, intraperitoneally for 14 days, in words) was “suppressed the normal rejection of allogeneic skin grafts”.
